According to paper PMC10447463, “Data-mining unveils structure–property–activity correlation of viral infectivity enhancing self-assembling peptides” (Nature Communications, 2023):
Read-outs that look alike come from different tables or passages of the source.

Key:
[1] = Conversion rate (CR) assay with fluorescamine; format: physicochemical
Method in brief: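 β-sheet content came from ATR FT-IR spectra of lyophilized 1 mg/mL nanofibril solution (64 scans, 2 cm^-1 resolution). Conversion was measured by separating free monomer with a 3 kDa cutoff filter, then comparing fluorescamine fluorescence (ex 365/em 470 nm, 20 min RT) of filtrate versus unfiltered sample, in triplicate.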

[2] = Aggregate analysis by widefield fluorescence microscopy; format: physicochemical
Procedure: 4 µL of 1 mg/mL peptide fibrils solution is added to a 20 µL, 50 µM ThT–solution in PBS. The mixture is incubated for 15 min at RT to allow binding of ThT dye with β–sheet rich structures. For reference PBS (4 µL) was added instead of peptide fibril solution. The samples were placed in black UV Star® 384 microliter well–plates (Greiner bio–one). Fluorescence spectra were recorded on an Infinite® M1000 PRO microplate reader (Tecan) at λem = 488 nm upon excitation at λex = 440 nm with 10 nm bandwidths and multiple reads per well (3×3). Measurements were repeated in triplicates and averaged with standard deviation. A peptide fibril was considered as ThT-active if the fluorescence intensity was at least twice as strong compared to the control (PBS containing 10% DMSO). Zeta-Potential. For the determination of the surface charge of aggregated peptides zeta-potential measurements were conducted with a Zetasizer Nano ZS, Malvern Instruments. Unless stated otherwise the peptides were dissolved from DMSO (10 mg/mL) in PBS (pH 7.4) to concentration of 1 mg/mL and incubated for 1d at RT. Just before the measurement the 60 µL of the peptides were further diluted in 600 µL KCl (aq, 1 mM) in a 1 mL disposable folded capillary cells (DTS–1060, Zetasizer Nano series, Malvern). The zeta potential of the peptides was derived from the electrophoretic mobility based on the Smoluchowski formula. All measurements were averaged over two individually performed experiments and conducted in triplicates for each sample. Aggregate analysis. […] Furthermore, fluorescence microscopy was conducted by staining 1 µL preformed fibrils (1 mg/mL) with 9 µL ThT (50 µM). Brightfield microscopy was performed simultaneously to evaluate aggregation also for non ThT-active fibrils. The measurements were performed on a Leica DMi8 microscope with 10x air objective and equipped with a Leica MC170 HD camera with a filter setting λem = 527/30 nm upon excitation at λex = 480/40 nm) and processed with the Leica LASX software. To quantify size and number of microscopic aggregation of particles > 10 µm^2 at least 3 independently measured images were analyzed via the 3D object counter analysis tool of ImageJ, v 1.53f51. Sum–frequency generation. The SFG experiments were carried out with a femtosecond Ti: Sapphire amplified laser system (Spitfire Ace, Spectra–Physics, 800 nm, 40 fs, 1 kHz) with 5 W output power. We used 2 W to pump an optical parametric amplifier (TOPAS, light conversion) with a non–collinear difference frequency generation stage to generate broadband IR pulses. Another 1 W of the laser output passed through an etalon to generate narrowband visible pulses (10 cm^-1). The incident angles of the visible and IR beams were 36° and 41° with respect to the surface normal, respectively. The visible (13 µJ) and IR (5 µJ) pulses were overlapped spatially and temporally at the sample position. Subsequently, the generated SFG pulse was guided into a spectrograph (Acton SP 300i, Princeton Instruments), and detected with an EMCCD (Newton, Andor Technology). To avoid IR absorption of water vapor, we purged N2 for the measurement. All spectra were collected in the ssp (denoting s-, s- and p-polarized SFG, visible and IR, respectively) polarization combination. The spectra were normalized to the non–resonant signal taken from z–cut quartz after subtracting a background spectrum.
Table S8 Summary of aggregate analysis from widefield microscopy measurements (Figure S32). The Number of aggregated peptides, the median size area, average size area
and the cumulative total size area of all particles (> 10 µm2) in an area of 1330 µm × 1330 µm was determined via automated 3D object counting (ImageJ) in triplicate
measurements (Std. Dev.).
Aggregate Std. Dev. Std. Dev. Std. Dev. Std. Dev.
Sequence Abs. Inf. / Std. Dev. / Count Rate / Std. Dev. Number Aggregate Median Area Median Area Average Area Average Area Total Area/ Total Area/ […]

[3] = Fig S8 panels A, C, 3 fields of 1330 µm x 1330 µm
[4] = Fig S8 panels B, D, average aggregate area, 3 fields of 1330 µm x 1330 µm
[5] = Fig S8 panels B, D, median aggregate area, 3 fields of 1330 µm x 1330 µm
[6] = Fig S8 panels B, D, 3 fields of 1330 µm x 1330 µm
[7] = Fig S8 panels B, D, widefield fluorescence microscopy, 3 fields of 1330 µm x 1330 µm

Substance	Conversion Rate / % ([1]; fluorescamine assay) [%]	Conversion Rate / % [1] [%]	Avg Area in 3 *(1330 µm *1330 µm) ([2]; Fig S8 panels A, C)	Log 10 Number of aggregates in 3 * (1330 µm *1330 µm) ([2]; Fig S8 panels A, C)	Median Area in 3 * (1330 µm *1330 µm) ([2]; Fig S8 panels A, C)	log Avg Area in 3 * ( (1330 µm *1330 µm)) ([2]; Fig S8 panels A, C)	log Median Area in 3 * ( (1330 µm *1330 µm)) ([2]; Fig S8 panels A, C)	log Total Area of all particles in 3 * (1330 µm *1330 µm) ([2]; Fig S8 panels A, C)	Number of aggregates in 3 * (1330 µm *1330 µm) [2, 3]	Avg Area in 3 *(1330 µm *1330 µm) [2, 4]	Median Area in 3 * (1330 µm *1330 µm) [2, 5]	Total Area of all particles in 3 * (1330 µm *1330 µm) [2, 6]	Number of aggregates in 3 * (1330 µm *1330 µm) [2, 7]
CEFEFQFNMWQ [TM140]	98.63												
CEIEIQINMWQ [TM143]	59.9	59.9											
CKAKAQANM [BL9]	57.73	57.73											
CKFKFQFNMWQ [BL2]	99.03	99.03											
CKFKFQFW [TM72]			28.12	2.713	16.689	1.449	1.222	4.162	517	28.12	16.689	14537.202	517
CKFKQFFNM [CK14]			31.08	2.848	15.21	1.4925	1.182	4.34	704	31.08	15.21	21881.13867	704
CKFKQFFNMWQ [CK13]	98.72	98.72											
CKIKIQI [MG3b]			58.72	2.501	16.48	1.7688	1.2169	4.27	317	58.72	16.48	18614.711	317
